Where two headings read alike, the source gives them in different places.
How the values were obtained:
HIV-1 = details: read-out: HIV-1 antiviral activity EC50, cited from earlier work
HTLV-1 integrase = target: T1, HTLV-1 integrase (Human T-cell leukemia virus 1, UniProt P03362); test: In vitro HTLV-1 integrase strand transfer assay (concerted integration, agarose gel densitometry); format: biochemical; details: for Inhibition of enzymatic activity Hill slope: dose-response fit of strand transfer inhibition
T1 construct: Full-length wild type HTLV-1 IN was recombinantly expressed, purified, and characterized; SUMO (pET28a-SUMO fusion) (N); made in house
T1 sequence (P03362 1168-1462): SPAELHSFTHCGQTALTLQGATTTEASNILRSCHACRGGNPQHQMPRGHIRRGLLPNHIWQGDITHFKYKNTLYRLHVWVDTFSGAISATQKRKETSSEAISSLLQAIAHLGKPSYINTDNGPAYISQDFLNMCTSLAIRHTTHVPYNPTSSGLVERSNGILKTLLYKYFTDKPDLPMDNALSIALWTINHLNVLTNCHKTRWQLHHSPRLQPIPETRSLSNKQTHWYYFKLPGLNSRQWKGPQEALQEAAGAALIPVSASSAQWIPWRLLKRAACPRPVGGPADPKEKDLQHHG
Description: Donor DNA mimicking the U5 3′-processed LTR ends of the viral DNA copy was prepared by annealing oligonucleotides (Supplementary Table S1), in 100 mM Tris pH 7.4, 400 mM NaCl. The optimized conditions for the strand transfer reactions are as follows: a solution was prepared containing 73 mM PIPES pH 6.0, 175 mM NaCl, 16.7 mM MgCl2, 5.8 μM ZnCl2, 12.8 mM DTT, 0.53 μM donor DNA, and 0.8 μM HTLV-1 integrase. Following a 30 min room temperature incubation in the presence or absence of INSTIs in the final concentration of 5% DMSO, the reaction was initiated by addition of 300 ng of pGEM-9Zf(−) supercoiled plasmid DNA. The total volume of each reaction was 150 μL. Reactions were carried out at 37°C for 30 min and were processed as described previously ([Maertens et al., 2010]). All reactions were performed in these conditions unless otherwise stated in the Figure legend. Reactions that included B′γ were done with equimolar ratio of IN to B′γ. The precipitated DNA was resuspended in agarose loading dye and analyzed on a 1.5% agarose gel run in 1× TAE buffer and stained with ethidium bromide. Bands corresponding to products of concerted integration were quantified by densitometry in ImageLab 4.1 (Bio-Rad). All experiments were done in triplicate.
Quantified data points were fitted to a dose-response curve in Prism 7. Cumulative standard deviation for each drug was calculated as an average of the upper limit and lower limit values: […]

HTLV-1 [1] = test: HTLV-1 infection of Jurkat cells by cell-to-cell transmission (co-culture with irradiated MT-2), proviral load by qPCR; format: cell-based, Human T-cell lymphotropic virus type 1; details: for EC50: read-out: Antiviral activity EC50 (HTLV-1)
Description: (§1) Jurkat cells were pre-treated with increasing amounts of INSTI (0.2 pM–2 μM in DMSO), or the carrier (DMSO) for 24 h. MT-2 cells were resuspended to a concentration of 2 × 10^6 cells/mL and exposed to a sub-lethal dose of gamma-irradiation (40,000 Rad). Cells were resuspended in serum-free RPMI to a concentration of 2 × 10^6 cells/mL in the presence of drug, and 0.5 × 10^6 of each cell type were co-cultured for 18 h. Following co-culture, cells were washed in PBS and resuspended in 1 mL of depletion buffer (0.1% FBS, 2 mM EGTA, PBS) before gentle tumbling (1 h, 4°C) with 25 μL of anti-CD25 + magnetic beads (DynaBeads, Thermo Fisher Scientific) to deplete MT-2 cells. Following depletion, the unbound fraction, i.e., Jurkat cells were maintained in RPMI with the drug present for 16 days before genomic DNA harvest (DNeasy kit, Qiagen). All experiments were done in triplicate. Depletion of MT-2 cells was verified by FACS. For cellular toxicity measurements, Jurkat cells were grown in the presence of the INSTIs as described above. Viability was measured by live dead stain (Hoechst 33258) and analyzed by FACS.
Proviral load (PVL) was estimated as previously described ([Manivannan et al., 2016]; [Rowan et al., 2016]). Genomic DNA concentrations were measured by nanospectroscopy (DeNovix), and samples were diluted to 5 ng/μL for real-time PCR (qPCR) analysis. qPCR reactions were performed for both the HTLV-1 tax gene and the human GAPDH gene (Supplementary Table S2). Gene copy numbers were determined by comparison to standard curves generated from a clone with a known single integration site (clone 11.50, courtesy of Prof. Charles Bangham). PVL was calculated by comparison of tax and GAPDH copy numbers as a fraction, multiplied by 100 to generate a percentile value assuming a single copy of tax and two copies of GAPDH per infected cell ([Lairmore et al., 1989]). Alu-PCR was performed as described previously ([Alais et al., 2015]), with the modification that the nested PCR was also run as a qPCR using SYBR-green (primers used are shown in Supplementary Table S2). Integrated provirus copy numbers were normalized to GAPDH, and DMSO treated HTLV-1 infected Jurkat cells were arbitrarily set to 100%. Averages and standard deviations of three independent experiments are shown. P-values were calculated using the student’s t-test.

[2] = Cellular toxicity in Jurkat cells (live dead stain Hoechst 33258, FACS); format: cell-based; details: human
Description: as §1, with “MT-2” for “Jurkat cells were pre-treated with increasing amounts of INSTI (0.2 pM–2 μM in DMSO), or the carrier (DMSO) for 24 h. MT-2”

HTLV-1 [3] = tested on: HTLV-1; parameters: method as in Pasquier et al., 2018; details: ref Pasquier et al., 2018, cited from earlier work
[4] = HTLV-1 IN 0.8 μM, concerted integration product
[5] = HTLV-1 IN 0.8 μM, concerted integration product, triplicate, read-out: Inhibition of enzymatic activity IC50
[6] = Jurkat cells co-cultured with irradiated MT-2, PVL 16 days post-infection
[7] = Primate T-lymphotropic virus 1, Jurkat, light or radiation study, 384 h, Jurkat cells co-cultured with irradiated MT-2, PVL 16 days post-infection

| SMILES | Inhibition of enzymatic activity IC95 (HTLV-1 integrase; [4]) [nM] | IC50 (HTLV-1 integrase; [5]) [nM] | Inhibition of enzymatic activity Hill slope (HTLV-1 integrase) | EC50 (HIV-1; ref a) [nM] | Antiviral activity EC95 (HTLV-1) (HTLV-1 [1]; [6]) [nM] | also measured |
| --- | --- | --- | --- | --- | --- | --- |
| Cn1c(N2CCCCS2(=O)=O)nc(C(=O)NCc2ccc(F)cc2)c(O)c1=O [BMS-707035] | 12200 ± 2900 | 350 ± 74 | 0.83 |  |  | EC50 (HIV-1; ref c): 2.5 nM |
| O=C(NCc1c(F)cc(F)cc1F)c1cn2c(c(O)c1=O)C(=O)N1[C@H]3CC[C@H](C3)O[C@@H]1C2 [Bictegravir, bictegravir] | 2090 ± 437 | 180 ± 29 | 1.2 | 1.6 ± 0.4 | 31.8 ± 18.2 | fold higher activity than raltegravir or elvitegravir, respectively (HTLV-1 [1]; HTLV-1 cell-to-cell infection model, versus raltegravir or elvitegravir): 20–30 fold; EC50 (HTLV-1 [1]; [6]): 0.302 ± 0.173 nM; EC50 (HTLV-1 [1]; [7]): 0.3 ± 0.17 nM; more potent than TDF in blocking HTLV-1 infection (HTLV-1 [1]; versus TDF): ~60; activity relative to elvitegravir (HTLV-1 integrase; in vitro assays, versus elvitegravir): ~55%; CC50 [2]: > 20000 nM |
| C[C@@H]1CCO[C@H]2Cn3cc(C(=O)NCc4ccc(F)cc4F)c(=O)c(O)c3C(=O)N12 [Dolutegravir, dolutegravir] | 3020 ± 485 | 260 ± 59 | 1.2 | 1.4 ± 0.3 |  |  |
| COc1cc2c(cc1Cc1cccc(Cl)c1F)c(=O)c(C(=O)O)cn2[C@H](CO)C(C)C [Elvitegravir, elvitegravir] | 1900 ± 304 |  | 1.0 |  | 1270 ± 735 | EC50 (HTLV-1 [1]; [7]): 9.57 ± 5.54 nM; IC50 (HTLV-1 integrase): 100 ± 16 nM; CC50 [2]: > 20000 nM |
| Cc1nnc(C(=O)NC(C)(C)c2nc(C(=O)NCc3ccc(F)cc3)c(O)c(=O)n2C)o1 [Raltegravir, raltegravir] | 29920 ± 5750 |  | 0.73 | 9.4 ± 1.4 | 1020 ± 675 | EC50 (HTLV-1 [1]; Primate T-lymphotropic virus 1, Jurkat, light or radiation study, 384 h): 6.42 ± 4.24 nM; IC50 (HTLV-1 integrase): 530 ± 102 nM; CC50 ([2]; Jurkat cells, read-out: CC50): > 20000 nM |
| CC(C)OC(=O)OCOP(=O)(CO[C@H](C)Cn1cnc2c(N)ncnc21)OCOC(=O)OC(C)C.O=C(O)/C=C/C(=O)O [TDF, tenofovir disproxil fumarate] |  |  |  |  |  | HTLV-1 infection blocked (HTLV-1 [3]; at concentrations of 10 μM): about 50%; EC50 (HTLV-1 [1]; [6]): 17.8 ± 7.16 nM |
| Cc1cn([C@H]2C[C@H](N=[N+]=[N-])[C@@H](CO)O2)c(=O)[nH]c1=O [zidovudine] |  |  |  |  |  | inhibition of HTLV-1 infection (HTLV-1 [3]; at 50 μM concentration): 10–20% |
